Measurements from patent US8809395B2, “Methods for making valerenic acid derivatives and their use” (Valericon GmbH, priority 2009, dated 2014).

Tests used:
[1] = molecular target: T1, GABAA channels composed of α1β3 subunits (Rattus norvegicus, UniProt P62813+P63079); test: Modulation of IGABA, two-microelectrode voltage-clamp on recombinant GABAA receptors expressed in Xenopus laevis oocytes; assay type: cell-based; conditions: for EC50 / Hill-Coefficient (nH): GABA EC3-5; for Emax: GABA EC3-5, read-out: Maximum stimulation of IGABA (EC3-5)
T1 construct: expressed in transfected cells; host or cells: Xenopus laevis oocytes injected with cRNA transcribed from cDNA in pCMV vector
Description: Preparation of stage V-VI oocytes from Xenopus laevis and synthesis of capped off run-off poly(A^+) cRNA transcripts from linearized cDNA templates (pCMV vector) were performed as described (Khom et al. 2006). Briefly, female Xenopus laevis (NASCO, USA) were anaesthetised by exposing them for 15 minutes to a 0.2% solution of MS-222 (methane sulfonate salt of 3-aminobenzoic acid ethyl ester; Sandoz) before surgically removing parts of the ovaries. Follicle membranes from isolated oocytes were enzymatically digested with 2 mg/ml collagenase (Type 1A, Sigma). One day after isolation, the oocytes were injected with about 10-50 nl of DEPC-treated water (diethyl pyrocarbonate, Sigma, Germany) containing the different cRNAs at a concentration of approximately 300-3000 pg/nl/subunit. The amount of cRNA was determined by means of a Nanoprop ND-1000 (Kisker-biotech, Steinfurt, Germany).
cRNAs were mixed in a ratio of 1:1 for the expression of α1β3 receptors. Oocytes were stored at 18° C. in ND96 solution (Methfessel et al., 1986). Electrophysiological experiments were done using the two-microelectrode voltage-clamp method at a holding potential of −70 mV making use of a TURBO TEC 01C amplifier (npi electronic, Tamm, Germany) and an Axon Digidata 1322A interface (Molecular Devices, Sunnyvale, Calif.). Data acquisition was carried out using pCLAMP v.9.2. The bath solution contained 90 mM NaCl, 1 mM KCl, 1 mM MgCl2.6H2O, 1 mM CaCl2 and 5 mM HEPES (pH 7.4). Microelectrodes were filled with 2M KCl and had resistances between 1 and 3 MΩ (Khom et al., 2007).
GABA and valerenic acid derivatives, respectively, were applied by means of fast perfusion system (see Baburin et al. 2006 for details; Khom et al. 2006). Drug or control solutions were applied by means of a TECAN Miniprep 60 permitting automation of the experiments. To elicit IGABA the chamber was perfused with 120 μl of GABA-containing solution at a rate of between 300 and 1000 μl/s. The IGABA rise time was in the range of between 100 and 250 ms (see Khom et al. 2006). Care was taken to account for possible slow recovery from increasing levels of desensitization in the presence of high GABA, valerenic acid and derivatives concentrations. Oocytes with maximal current amplitudes >3 μA were discarded to exclude voltage-clamp errors (Khom et al., 2006; Baburin et al., 2006; Khom et al., 2007).
Stimulation of chloride currents by modulators of the GABAA receptor was measured at a GABA concentration eliciting between 3% and 5% of the maximal current amplitude (EC3-5). The EC3-5 was determined at the beginning of each experiment. Enhancement of the chloride current was defined as (I(GABA+Comp)/IGABA)−1, where I(GABA+Comp) is the current response in the presence of a given compound (valerenic acid or derivative) and IGABA is the control GABA current. To measure the sensitivity of the GABAA receptor for a given compound, the compound was applied for an equilibration period of 1 minute before applying GABA (EC3-5). Concentration-response curves were generated and the data were fitted by non-linear regression analysis using Origin software (OriginLab Corporation, USA). Data were fitted to the equation:
[formula] where nH is the Hill coefficient. Each data point represents the mean±S.E. from at least 4 oocytes and 2 oocyte batches. Statistical significance was calculated using the paired Student t-test with a confidence interval of p<0.05 (Khom et al., 2007). 4.2.2. Modulation of IGABA by VA Derivatives
Furthermore, the modulation of IGABA by VA derivatives was investigated at a GABA EC3-5 concentration in a system as outlined under 4.2.1, i.e. on recombinant GABAA receptors expressed in Xenopus laevis oocytes. Thus, modulation of IGABA by VA derivatives was studied on GABAA channels composed of α1β3 subunits.

c57B1/6N mice = test: Seizure threshold by pentylenetetrazole (PTZ) tail-vein infusion; assay type: in vivo; conditions: for seizure threshold: intraperitoneally, 30 min prior to test
Description: Seizure threshold was determined by pentylenetetrazole (PTZ) tail-vein infusion at a rate of 100 μl/min ([…] PTZ in saline, pH 7.4) on freely moving animals. 30 min prior to test c57B1/6N mice were intraperitoneally injected with either saline (=control group), VA or VA derivatives at the indicated concentrations. […] Animals were immediately anaesthetized using increasing carbon dioxide concentrations and killed by cervical displacement. The seizure threshold dose was calculated from the infused volume in relation to body weight. Results from tail-vein infusion were verified by intraperitoneal injection of a fixed dose of 30 mg PTZ/kg body weight. Animals were observed and video-tracked for 20 min after treatment.

mice (C57B1/6N) = test: Mouse Elevated Plus Maze (EPM) test; assay type: in vivo; conditions: 3 mg/kg BW, injected 30 min prior to testing, assessed over 5 minutes
Description: Male mice (C57B1/6N) were obtained from Charles River Laboratories (Germany). For breeding and maintenance mice were housed in groups with free access to food and water.
Temperature was fixed to 23±1C and 60% humidity with a 12 h light-dark cycle (lights on 0700-1900 hours). Age and testing experience matched male mice at 3-8 months for all experiments. All procedures involving animals were approved by the Austrian Animal Experimentation Ethics Board in compliance with the European convention for the protection of vertebrate animals used for experimental and other scientific purposes ETS no.: 123.
Mice were transferred to the testing facility 24 h before commencement of experiments. Tests were performed between 0900 and 1300 hours. All tests were video monitored and evaluated by an experimenter blinded to the administered compound. […]
Behaviour was tested over 5 minutes on an elevated plus maze (1 meter above ground) consisting of two closed and two open arms, each 50 cm×5 cm in size. […] Analysis of open and closed arm entries and time on open arm was automatically recorded using Video-Mot 2 equipment and software (Wittmann et al., 2008). […]

T1 sequence (P62813 28-455): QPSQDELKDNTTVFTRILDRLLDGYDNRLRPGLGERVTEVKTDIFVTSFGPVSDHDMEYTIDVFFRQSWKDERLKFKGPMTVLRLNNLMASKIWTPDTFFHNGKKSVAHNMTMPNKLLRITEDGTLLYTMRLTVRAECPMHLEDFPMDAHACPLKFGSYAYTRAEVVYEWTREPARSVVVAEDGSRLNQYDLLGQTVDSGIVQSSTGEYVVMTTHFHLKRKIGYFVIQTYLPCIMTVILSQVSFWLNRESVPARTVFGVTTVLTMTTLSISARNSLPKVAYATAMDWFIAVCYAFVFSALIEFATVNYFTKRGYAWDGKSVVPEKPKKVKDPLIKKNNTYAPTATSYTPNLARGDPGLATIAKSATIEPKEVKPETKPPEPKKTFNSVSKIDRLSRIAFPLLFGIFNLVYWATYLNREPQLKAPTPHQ
T1 sequence (P63079 26-473): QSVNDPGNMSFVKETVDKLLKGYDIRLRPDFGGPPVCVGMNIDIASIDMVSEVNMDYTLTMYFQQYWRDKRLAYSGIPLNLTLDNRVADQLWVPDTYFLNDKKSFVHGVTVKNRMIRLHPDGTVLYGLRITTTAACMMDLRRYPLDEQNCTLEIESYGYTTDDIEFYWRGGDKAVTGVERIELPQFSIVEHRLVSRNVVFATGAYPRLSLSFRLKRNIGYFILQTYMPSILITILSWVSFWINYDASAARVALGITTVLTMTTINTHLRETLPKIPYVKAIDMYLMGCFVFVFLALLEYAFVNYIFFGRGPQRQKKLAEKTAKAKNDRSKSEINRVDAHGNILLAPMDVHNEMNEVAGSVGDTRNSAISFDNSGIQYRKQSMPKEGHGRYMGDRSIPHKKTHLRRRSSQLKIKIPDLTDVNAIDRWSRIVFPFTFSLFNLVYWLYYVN

| SMILES | EC50 [1] [µM] | Hill-Coefficient (nH) [1] | Emax [1] [%] | anticonvulsant effects (in words) (c57B1/6N mice; 30 mg/kg bodyweight) | further results |
| --- | --- | --- | --- | --- | --- |
| CC1=C2[C@H](/C=C(\C)C(=O)N3CCOCC3)CC[C@@H](C)[C@H]2CC1 [VA-MO, (E)-3-((4S,7R,7aR)-3,7-dimethyl-2,4,5,6,7,7a-hexahydro-1H-inden-4-yl)-2-methyl-1-morpholinoprop-2-en-1-one] | 64.2 ± 13.8 | 1.6 ± 0.2 | – | – | – |
| CNC(=O)/C(C)=C/[C@@H]1CC[C@@H](C)[C@H]2CCC(C)=C12 [VA-MA, (E)-3-((4S,7R,7aR)-3,7-dimethyl-2,4,5,6,7,7a-hexahydro-1H-inden-4-yl)-N,2-dimethylacrylamide] | 26.3 ± 6.6 | 1.4 ± 0.1 | – | significantly increased | anticonvulsant effect compared among tested substances (c57B1/6N mice; 30 mg/kg bodyweight): strongest anticonvulsant effect |
| CC1=C2[C@H](/C=C(\C)C(=O)N3CCCCC3)CC[C@@H](C)[C@H]2CC1 [VA-PIP, (E)-3-((4S,7R,7aR)-3,7-dimethyl-2,4,5,6,7,7a-hexahydro-1H-inden-4-yl)-2-methyl-1-(piperidin-1-yl)prop-2-en-1-one] | 54.6 ± 17 | 1.6 ± 0.3 | – | – | – |
| CCN(CC)C(=O)/C(C)=C/[C@@H]1CC[C@@H](C)[C@H]2CCC(C)=C12 [VA-DEA, (E)-3-((4S,7R,7aR)-3,7-dimethyl-2,4,5,6,7,7a-hexahydro-1H-inden-4-yl)-N,N-diethyl-2-methylacrylamide] | 23.7 ± 6.3 | 1.4 ± 0.1 | 901 ± 120 | significantly increased | – |
| CCNC(=O)/C(C)=C/[C@@H]1CC[C@@H](C)[C@H]2CCC(C)=C12 [VA-EA] | 23.4 ± 6.9 | 1.3 ± 0.3 | – | significantly increased | – |
| CC1=C2[C@H](/C=C(\C)C(=O)N(C)C)CC[C@@H](C)[C@H]2CC1 [VA-DMA, (E)-3-((4S,7R,7aR)-3,7-dimethyl-2,4,5,6,7,7a-hexahydro-1H-inden-4-yl)-N,N,2-trimethylacrylamide] | 28.4 ± 7.1 | 2.1 ± 0.5 | – | – | – |
| CC1=C2[C@H](/C=C(\C)C(=O)O)CC[C@@H](C)[C@H]2CC1 [VA, (E)-3-[(4S,7R,7aR)-3,7-dimethyl-2,4,5,6,7,7a-hexahydro-1H-inden-4-yl]-2-methylprop-2-enoic acid, reference compound] | – | – | – | – | seizure threshold (c57B1/6N mice; 3 mg/kg bodyweight): 47.7±2.7 mg PTZ/kg; seizure threshold (in words) (c57B1/6N mice; concentrations ≧3 mg/kg bodyweight, vs. saline): significantly increased |

The remaining compounds from weak to strong by EC50 [1], led by results:

| EC50 [1] [µM] | Hill-Coefficient (nH) [1] | Emax [1] [%] | SMILES | anticonvulsant effects (in words) (c57B1/6N mice; 30 mg/kg bodyweight) | further results |
| --- | --- | --- | --- | --- | --- |
| 22.5 ± 6 | 1.5 ± 0.3 | 506 ± 76 | CC1=C2[C@H](/C=C(\C)C(=O)NC(C)C)CC[C@@H](C)[C@H]2CC1 [VA-IPA, (E)-3-((4S,7R,7aR)-3,7-dimethyl-2,4,5,6,7,7a-hexahydro-1H-inden-4-yl)-N-isopropyl-2-methylacrylamide] | – | – |
| 18.8 ± 6.9 | 1.1 ± 0.2 | 569 ± 57 | CCCCNC(=O)/C(C)=C/[C@@H]1CC[C@@H](C)[C@H]2CCC(C)=C12 [VA-BA, (E)-N-butyl-3-((4S,7R,7aR)-3,7-dimethyl-2,4,5,6,7,7a-hexahydro-1H-inden-4-yl)-2-methylacrylamide] | – | – |
| 13.7 ± 2.3 | 1.6 ± 0.2 | – | CC1=C2[C@H](/C=C(\C)C(N)=O)CC[C@@H](C)[C@H]2CC1 [VA-A, (E)-3-((4S,7R,7aR)-3,7-dimethyl-2,4,5,6,7,7a-hexahydro-1H-inden-4-yl)-2-methylacrylamide] | – | anticonvulsant effect compared among tested substances (c57B1/6N mice; 3 mg/kg bodyweight): most pronounced; seizure threshold (c57B1/6N mice; 3 mg/kg bodyweight): 58.6±3.7 mg PTZ/kg; time spent in the open arms of the EPM, % of total time in the test (mice (C57B1/6N)): 52.1±3.9% |
